Assay results as given in US5994365A, “Substituted diazaanthracene compounds having pharmaceutical utility” (Diazans Limited, priority 1998, dated 1999).
Several values for one entry are separate records, joined by “and”; a condition that tells them apart may be missing. Equal values may be shown once.

Assays:
Staph aureus = assay: Broth microdilution (NCCLS guidelines), MIC; assay type: cell-based, Staphylococcus aureus; design: MICs: unit not given beside the values; settings: for 1st MIC / 2nd MIC: Table B
Procedure: (§1) The dimer product of Example 15 was obtained in powder form. A stock solution of 1280 mg/L of the dimer in dimethylsulfoxide (DMSO) was prepared and stored at room temperature in a foil-wrapped screw-capped tube (10 ml). Subsequent dilutions were prepared using cation-adjusted Mueller-Hinton broth (50 mg/L Mg). […] It was resuspended upon mixing each time an aliquot was taken from the solution.
(§2) Approximately 100 varied bacterial isolates were initially collected for screening, along with 9 ATCC organisms. Forty additional strains of Staphylococcus species were subsequently screened. All isolates were identified according to generally accepted lab protocol.
(§3) Broth microdilution was performed according to NCCLS guidelines. Microdilution panels were prepared using doubling dilutions of the dimer in ~250 μl plastic, 96-well trays. Inoculum suspension equal to a 0.5 McFarland standard were further diluted and added to the microdilution trays to achieve a final inoculum of 5×10^5 CFU/ml (5×10^4 CFU/well). Colony counts were performed to confirm the final inoculum, as well as its purity. Each strain was also tested in a growth control well containing only MHB for viability.
Microdilution trays were incubated at 35° C. in ambient air or 5% CO2 as appropriate for 16-20 hours. After incubation, the minimal inhibitory concentration (MIC) was defined as the lowest concentration of the dimer with no evidence of growth. Since 10 or more strains of most organisms were tested; a range of MICs was determined for each organism, as well as the concentration of the dimer that inhibited 50% of the strains (MIC50) and the concentration of the dimer that inhibited 90% of the strains (MIC90).

ATCC EC 25922 = assay: Broth microdilution (NCCLS guidelines), MIC; assay type: cell-based, Escherichia coli; settings: Table A
Procedure: as §1, §2, §3
Microdilution trays were incubated at 35° C. in ambient air or 5% CO2 as appropriate for 16-20 hours. […]

[1] = strain S. aureus 1 (line under ATCC 25923)
[2] = Table C, Pip/Taz S. aureus, 10 strains, solution 14 days old
[3] = Table C, S. aureus, 10 strains, solution 14 days old
[4] = Table E, Pip/Taz SA, 10 strains, fresh solution
[5] = Table E, S. aureus, 10 strains, fresh solution
[6] = Table G, S. aureus (2nd clinical isolate collection), 10 strains
[7] = Table G, S. aureus (pip-tazo study), 10 strains

Substance: 10,10'-bis(3,6-dimethyl-5,10-dihydro-1,8-diazaanthracen-5-one) and 5,5'-bis(3,6-dimethyl-5,10-dihydro-1,8-diazaanthracen-10-one) [Example 15]
- MIC50 (Staph aureus; Table A, 12 strains): 0.5 µg/mL
- MIC90 (Staph aureus; Table A, 12 strains): 1.0 µg/mL
- Range of MICs (Staph aureus; Table A, 12 strains): .0625 to 1.0 mg/L
- MIC (Staph aureus; Table A, ATCC MSSA 25923): 0.0625 µg/mL
- MIC (Staph aureus; Table A, ATCC MSSA 29213): 1.0 µg/mL
- 1st MIC (Staph aureus; [1]): 0.0625 µg/mL
- 2nd MIC (Staph aureus; [1]): 0.0625 µg/mL
- 1st MIC (Staph aureus; strain S. aureus 2): 1 µg/mL
- 2nd MIC (Staph aureus; strain S. aureus 2): 1 µg/mL
- 1st MIC (Staph aureus; strain S. aureus 3): 0.5 µg/mL
- 2nd MIC (Staph aureus; strain S. aureus 3): 0.125 µg/mL
- 1st MIC (Staph aureus; strain S. aureus 4): 1 µg/mL
- 2nd MIC (Staph aureus; strain S. aureus 4): 1 µg/mL
- 1st MIC (Staph aureus; strain S. aureus 5): 1 µg/mL
- 1st MIC (Staph aureus; strain S. aureus 6): 0.125 µg/mL
- 2nd MIC (Staph aureus; strain S. aureus 6): 0.25 µg/mL
- 1st MIC (Staph aureus; strain S. aureus 7): 0.5 µg/mL
- 2nd MIC (Staph aureus; strain S. aureus 7): 0.5 µg/mL
- 1st MIC (Staph aureus; strain S. aureus 8): 0.5 µg/mL
- 2nd MIC (Staph aureus; strain S. aureus 8): 1 µg/mL
- MICs (Staph aureus; Table C, ATCC MSSA 25923, solution 14 days old, listed as Dimer): 8 and > 16
- MICs (Staph aureus; Table C, ATCC MSSA 29213, solution 14 days old, listed as Dimer, in µg/mL): 4 and 8
- MIC50 (Staph aureus; [2]): 2 µg/mL
- MIC90 (Staph aureus; [2]): 8 µg/mL
- Range of MICs (Staph aureus; Table C, Pip/Taz S. aureus, 10 strains, solution 14 days old, in µg/mL): 2-16
- MIC50 (Staph aureus; [3]): 4 µg/mL
- MIC90 (Staph aureus; [3]): 16 µg/mL
- Range of MICs (Staph aureus; Table C, S. aureus, 10 strains, solution 14 days old, in µg/mL): 2-8
- MIC (Staph aureus; Table D, S. aureus 1): 2 µg/mL
- MIC (Staph aureus; Table D, S. aureus 2): 16 µg/mL
- MIC (Staph aureus; Table D, S. aureus 3): 8 µg/mL
- MIC (Staph aureus; Table D, S. aureus 4): 4 µg/mL
- MIC (Staph aureus; Table D, S. aureus 5): 16 µg/mL
- MIC (Staph aureus; Table D, S. aureus 6): 2 µg/mL
- MIC (Staph aureus; Table D, S. aureus 7): 8 µg/mL
- MIC (Staph aureus; Table D, S. aureus 8): 2 µg/mL
- MIC (Staph aureus; Table D, S. aureus 9): 2 µg/mL
- MIC (Staph aureus; Table D, S. aureus 10): 4 µg/mL
- MICs (Staph aureus; Table E, ATCC MSSA 25923, fresh solution, listed as Dimer, in µg/mL): 0.125 and 0.25
- MICs (Staph aureus; Table E, ATCC MSSA 29213 (×2), fresh solution, in µg/mL): 2
- MIC50 (Staph aureus; [4]): 1 µg/mL
- MIC90 (Staph aureus; [4]): 2 µg/mL
- Range of MICs (Staph aureus; Table E, Pip/Taz SA, 10 strains, fresh solution, in µg/mL): 0.25-2
- MIC50 (Staph aureus; [5]): 0.5 µg/mL
- MIC90 (Staph aureus; [5]): 1 µg/mL
- Range of MICs (Staph aureus; Table E, S. aureus, 10 strains, fresh solution, in µg/mL): 0.25-1
- MIC (Staph aureus; Table F, ATCC S. aureus 25923): 0.25 µg/mL
- MIC (Staph aureus; Table F, ATCC S. aureus 29213): 2 µg/mL
- MIC (Staph aureus; Table F, Pip/Taz S. aureus 1): 2 µg/mL
- MIC (Staph aureus; Table F, Pip/Taz S. aureus 3): 0.25 µg/mL
- MIC (Staph aureus; Table F, Pip/Taz S. aureus 7): 1 µg/mL
- MIC (Staph aureus; Table F, S. aureus 1): 0.25 µg/mL
- MIC (Staph aureus; Table F, S. aureus 2): 1 µg/mL
- MIC (Staph aureus; Table F, S. aureus 8): 0.5 µg/mL
- MIC (Staph aureus; Table G footnote, ATCC 25923, methicillin susceptible): 0.25 µg/mL
- MIC (Staph aureus; Table G footnote, ATCC 29213, methicillin susceptible): 2 µg/mL
- MIC50 (Staph aureus; [6]): 0.5 µg/mL
- MIC90 (Staph aureus; [6]): 1 µg/mL
- Range of MICs (Staph aureus; [6]): 0.25 to 1 mg/L
- MIC50 (Staph aureus; [7]): 1 µg/mL
- MIC90 (Staph aureus; [7]): 2 µg/mL
- Range of MICs (Staph aureus; [7]): 0.25 to 2 mg/L
- MIC (ATCC EC 25922): > 64 µg/mL
